Results on eight molecules are retold here after ChEMBL document CHEMBL3751680 (Bioorg Med Chem, 2016).

Structures are written as SMILES. Calls of active or inactive are those of the source. The rule behind the calls is not given here. Bounds are passed on as bounds.

The species entered for assay [1] is Canis lupus familiaris. As to the kind of experiment: Binding affinity to hound bone powder assessed as reduction in bound compound level at 50 uM after 16 hrs by NMR spectroscopic analysis relative to alendronate. Also noted: scale not given: the % may be the effect or the level left.
The species named for assay [2] is Canis lupus familiaris. As to the kind of experiment: Binding affinity to hound bone powder assessed as change in vibration bands at 20 to 50 uM after 1 hr by FTIR analysis.
The species named for assay [3] is Canis lupus familiaris. As to the kind of experiment: Binding affinity to hound bone powder assessed as reduction in bound compound level at 50 uM after 16 hrs by NMR spectroscopic analysis relative to control. Also noted: scale not given: the % may be the effect or the level left.
Assay [4] in a line: Binding affinity to synthetic ceramic hydroxyapatite type 1 assessed as reduction in bound compound level at 50 uM after 1 hr by NMR spectroscopic analysis relative to alendronate. Set-up: scale not given: the % may be the effect or the level left.
The target of assay [5] is Collagen alpha-1(I) chain (Canis lupus familiaris) (UniProt Q9XSJ7). As to the kind of experiment: Binding affinity to hound collagen 1a1 (unknown origin) at 50 uM after 1 8 hrs by 1H NMR spectroscopic analysis.
For assay [6], the species on record is Canis lupus familiaris. The assay is described as follows: […] hound bone beams assessed as energy to fracture at 2 uM by 4 point bending analysis relative to control.
Assay [7] is filed under the species Canis lupus familiaris. The assay is described as follows: Binding affinity to hound bone powder at 50 uM after 1 to 8 hrs by 1H NMR spectroscopic analysis.
For assay [8], the species on record is Canis lupus familiaris. The assay is described as follows: Binding affinity to hound bone powder assessed as reduction in bound compound level at 50 uM after 1 hr by NMR spectroscopic analysis relative to alendronate. Set-up: scale not given: the % may be the effect or the level left.
A short description of assay [9]: Binding affinity to synthetic ceramic hydroxyapatite type 1 assessed as reduction in bound compound level at 50 uM after 16 hrs by NMR spectroscopic analysis relative to control. Also noted: scale not given: the % may be the effect or the level left.
Assay [10] is described as follows: Binding affinity to synthetic ceramic hydroxyapatite type 1 assessed as reduction in bound compound level at 50 uM after 1 hr by NMR spectroscopic analysis relative to control. Set-up: scale not given: the % may be the effect or the level left.
Assay [11] can be described thus: Binding affinity to synthetic ceramic hydroxyapatite type 1 assessed as reduction in bound compound level at 50 uM after 16 hrs by NMR spectroscopic analysis relative to alendronate. Set-up: scale not given: the % may be the effect or the level left.
The species named for assay [12] is Canis lupus familiaris. As to the kind of experiment: Binding affinity to hound bone powder assessed as reduction in bound compound level at 50 uM after 1 hr by NMR spectroscopic analysis relative to control. Set-up: scale not given: the % may be the effect or the level left.
The target in the next assay is T1, Estrogen receptor (Homo sapiens, UniProt P03372).
T1 sequence (P03372 whole entry): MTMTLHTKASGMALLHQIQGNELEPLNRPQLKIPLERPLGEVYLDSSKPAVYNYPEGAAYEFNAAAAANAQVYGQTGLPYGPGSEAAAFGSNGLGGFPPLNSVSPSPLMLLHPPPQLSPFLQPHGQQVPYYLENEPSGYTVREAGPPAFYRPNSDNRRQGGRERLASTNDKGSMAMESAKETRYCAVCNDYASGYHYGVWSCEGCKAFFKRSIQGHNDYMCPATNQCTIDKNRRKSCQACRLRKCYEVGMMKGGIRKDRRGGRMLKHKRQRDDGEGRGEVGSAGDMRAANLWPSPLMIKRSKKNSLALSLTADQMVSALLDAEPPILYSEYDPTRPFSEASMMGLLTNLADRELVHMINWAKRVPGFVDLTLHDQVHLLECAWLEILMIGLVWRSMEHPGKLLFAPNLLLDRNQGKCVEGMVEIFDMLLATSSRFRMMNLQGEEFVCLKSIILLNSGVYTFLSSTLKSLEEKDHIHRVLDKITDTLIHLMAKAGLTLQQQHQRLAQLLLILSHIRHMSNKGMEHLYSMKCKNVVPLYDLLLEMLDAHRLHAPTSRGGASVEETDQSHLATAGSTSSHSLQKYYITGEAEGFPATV
The assay is described as follows: Binding affinity to ERalpha (unknown origin).

Another assay addresses Estrogen receptor beta (Homo sapiens, UniProt Q92731). As to the kind of experiment: Binding affinity to ERbeta (unknown origin).

Collagen alpha-1(I) chain (Canis lupus familiaris), sequence (Q9XSJ7 whole entry): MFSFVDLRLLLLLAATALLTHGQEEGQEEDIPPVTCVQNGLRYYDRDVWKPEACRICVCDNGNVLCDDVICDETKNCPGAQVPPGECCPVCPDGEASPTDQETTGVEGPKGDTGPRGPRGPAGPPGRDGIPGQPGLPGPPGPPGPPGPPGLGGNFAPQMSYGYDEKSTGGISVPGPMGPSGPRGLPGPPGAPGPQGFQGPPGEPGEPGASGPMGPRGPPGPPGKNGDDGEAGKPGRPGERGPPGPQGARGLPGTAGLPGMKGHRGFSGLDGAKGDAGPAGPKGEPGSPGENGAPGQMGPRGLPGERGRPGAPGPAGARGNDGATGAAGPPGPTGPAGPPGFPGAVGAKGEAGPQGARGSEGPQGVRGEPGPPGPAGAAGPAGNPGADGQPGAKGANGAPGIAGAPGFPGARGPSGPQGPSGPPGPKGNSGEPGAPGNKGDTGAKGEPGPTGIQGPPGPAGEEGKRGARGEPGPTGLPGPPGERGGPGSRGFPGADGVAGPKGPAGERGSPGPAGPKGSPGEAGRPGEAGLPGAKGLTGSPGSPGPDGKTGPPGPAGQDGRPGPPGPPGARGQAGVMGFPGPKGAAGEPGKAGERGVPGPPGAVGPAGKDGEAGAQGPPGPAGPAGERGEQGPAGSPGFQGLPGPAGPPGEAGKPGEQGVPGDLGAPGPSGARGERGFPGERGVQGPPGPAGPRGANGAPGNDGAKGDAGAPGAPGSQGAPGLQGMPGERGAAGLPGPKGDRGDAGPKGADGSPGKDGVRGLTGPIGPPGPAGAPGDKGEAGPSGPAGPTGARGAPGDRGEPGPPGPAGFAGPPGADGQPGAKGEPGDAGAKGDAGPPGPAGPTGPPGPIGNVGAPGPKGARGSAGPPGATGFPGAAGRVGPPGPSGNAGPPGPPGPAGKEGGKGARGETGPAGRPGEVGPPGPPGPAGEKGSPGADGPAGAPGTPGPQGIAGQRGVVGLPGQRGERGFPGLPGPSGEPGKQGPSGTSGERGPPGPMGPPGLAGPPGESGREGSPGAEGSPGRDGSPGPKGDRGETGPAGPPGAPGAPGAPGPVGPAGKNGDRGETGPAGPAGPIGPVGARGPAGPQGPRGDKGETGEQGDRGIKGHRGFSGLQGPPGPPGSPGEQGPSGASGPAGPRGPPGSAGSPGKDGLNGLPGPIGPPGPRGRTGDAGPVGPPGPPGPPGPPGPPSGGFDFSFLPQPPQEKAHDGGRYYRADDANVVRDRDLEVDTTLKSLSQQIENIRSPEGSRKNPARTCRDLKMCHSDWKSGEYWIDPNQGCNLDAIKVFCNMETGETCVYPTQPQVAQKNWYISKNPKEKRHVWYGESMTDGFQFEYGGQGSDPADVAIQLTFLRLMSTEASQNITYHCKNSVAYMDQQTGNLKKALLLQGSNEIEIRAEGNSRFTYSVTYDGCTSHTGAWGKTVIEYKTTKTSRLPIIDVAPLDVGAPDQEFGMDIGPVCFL
Estrogen receptor beta, sequence (Q92731 whole entry): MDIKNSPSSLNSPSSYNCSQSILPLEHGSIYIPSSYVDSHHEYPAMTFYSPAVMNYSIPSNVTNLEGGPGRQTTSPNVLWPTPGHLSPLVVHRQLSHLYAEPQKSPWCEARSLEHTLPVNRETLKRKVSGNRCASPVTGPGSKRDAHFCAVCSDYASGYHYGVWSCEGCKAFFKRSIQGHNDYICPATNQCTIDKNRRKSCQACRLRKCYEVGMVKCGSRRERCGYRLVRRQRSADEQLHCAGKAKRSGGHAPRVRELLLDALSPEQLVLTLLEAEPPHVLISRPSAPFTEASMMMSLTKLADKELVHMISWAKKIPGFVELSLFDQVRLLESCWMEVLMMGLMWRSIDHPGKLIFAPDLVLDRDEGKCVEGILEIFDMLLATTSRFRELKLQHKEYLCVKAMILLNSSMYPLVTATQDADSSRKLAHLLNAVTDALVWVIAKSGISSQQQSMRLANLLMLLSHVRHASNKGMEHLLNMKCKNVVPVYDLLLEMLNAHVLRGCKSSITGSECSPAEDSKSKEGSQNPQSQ

With `O=C(c1ccc(OCCN2CCCCC2)cc1)c1c(-c2ccc(O)cc2)sc2cc(O)ccc12`, the Activity was 104% in the assay filed under Canis lupus familiaris [1]; 99% in the assay filed under Canis lupus familiaris [3]; -232% in assay [4]; 16% in the assay listed under Canis lupus familiaris [6]; 54.2% in the assay filed under Canis lupus familiaris [8]; -206% in assay [9]. Moreover, the Activity in assay [10] is -232%; in [11] it was -207%; in the assay filed under Canis lupus familiaris [12] it was 54.2%. For the same molecule, the result (in the assay listed under Canis lupus familiaris [2]; in assay [5]; in the assay filed under Canis lupus familiaris [7]) was Active.

With `COc1ccc(Nc2nc(NCc3ccco3)nc(N/N=C(\C)c3ccc(NC(C)=O)cc3)n2)cc1`, the Activity in the assay listed under Canis lupus familiaris [1] is -0.5%; in the assay listed under Canis lupus familiaris [3], -0.5%; in assay [4] it was 3.9%; in the assay listed under Canis lupus familiaris [8], 0.3%; in assay [9] it was 4.1%; in assay [10] it was 3.9%. The Activity in assay [11] came out at 4.1%; in the assay filed under Canis lupus familiaris [12], 0.3%.

As for `NCCCC(O)(P(=O)(O)O)P(=O)(O)O`, the Activity in the assay listed under Canis lupus familiaris [3] was 95.6%; in [9] it was 99.7%; in assay [10] it was 100%; in the assay filed under Canis lupus familiaris [12] it was 41.1%.

As for `O=C(c1ccc(OCCN2CCCCC2)cc1)c1c(-c2ccccc2)sc2ccccc12`, the Activity in the assay listed under Canis lupus familiaris [1] is 93.1%; in the assay listed under Canis lupus familiaris [3] it was 89%; in [4], -422%; in the assay listed under Canis lupus familiaris [8], -132%; in assay [9], -237%; in assay [10], -422%. Besides, the Activity in assay [11] was -238%; in the assay filed under Canis lupus familiaris [12], -132%. The Ki on Estrogen receptor and on Estrogen receptor beta was above 10 µM in each case.

For `O=C(c1ccc(O)cc1)c1c(-c2ccc(O)cc2)sc2cc(O)ccc12`, the Activity was 35.6% in the assay listed under Canis lupus familiaris [1]; 34.1% in the assay listed under Canis lupus familiaris [3]; 13.3% in [4]; -36% in the assay listed under Canis lupus familiaris [6]; 26.4% in the assay listed under Canis lupus familiaris [8]; 15.1% in assay [9]. Moreover, the Activity was 13.3% in assay [10], 15.1% in [11] and 26.4% in the assay filed under Canis lupus familiaris [12]. Besides, the outcome (in assay [5]; in the assay listed under Canis lupus familiaris [7]) was Active.

On to `COc1ccc2c(C(=O)c3ccc(OCCN4CCCCC4)cc3)c(-c3ccc(O)cc3)sc2c1`, for which the Activity in the assay listed under Canis lupus familiaris [1] is 77.4%; in the assay listed under Canis lupus familiaris [3], 73.9%; in assay [4] it was -57.9%; in the assay filed under Canis lupus familiaris [6] it was 25%; in the assay listed under Canis lupus familiaris [8] it was 21%; in assay [9], -286%. Also, the Activity in assay [10] was -57.9%; in assay [11] it was -287%; in the assay filed under Canis lupus familiaris [12], 21%. Moreover, the outcome (in assay [5]; in the assay filed under Canis lupus familiaris [7]) was Active.

On to `C[C@]12CC[C@@H]3c4ccc(O)cc4CC[C@H]3[C@@H]1CC[C@@H]2O`, for which the Activity in the assay listed under Canis lupus familiaris [1] was determined as 77.4%; in the assay listed under Canis lupus familiaris [3], 73.9%; in assay [4] it was 57.1%; in the assay filed under Canis lupus familiaris [8] it was 5.3%; in [9] it was 73%; in assay [10], 57.1%. Moreover, the Activity in [11] was determined as 73.2%; in the assay listed under Canis lupus familiaris [12], 5.3%.

For `Oc1ccc(-c2cc3ccc(O)cc3s2)cc1` [RALOXIFENE CORE], the Activity is 48.6% in the assay listed under Canis lupus familiaris [1]; 46.4% in the assay filed under Canis lupus familiaris [3]; 22.3% in [4]; -75% in the assay filed under Canis lupus familiaris [6]; 42.8% in the assay listed under Canis lupus familiaris [8]; 11.7% in assay [9]. For the same molecule, the Activity in assay [10] turned out to be 22.3%; in assay [11], 11.7%; in the assay listed under Canis lupus familiaris [12], 42.8%. The same molecule returned a Ki at Estrogen receptor beta of 0.0023 µM.
